Reference: ChEMBL document CHEMBL1155768, “Dexamethasone as adjuvant therapy to moxifloxacin attenuates valve destruction in experimental aortic valve endocarditis due to Staphylococcus aureus” (Antimicrob Agents Chemother, 2007)
Values after ≈ are worked out from the molar mass of the structure shown. Active and inactive are the calls of the source. The rule behind the calls is not given here.

Experiments:
[1] = tested on: Staphylococcus aureus; experiment: Antibacterial activity against Staphylococcus aureus by manual microdilution technique; type: functional
[2] = tested on: Staphylococcus aureus; experiment: Antibacterial activity against Staphylococcus aureus infection-induced aortic valve endocarditis in rabbit assessed as cured animals in blood culture at 20 mg/kg, iv administered every 12 hrs for 5 days sacrificed 12 days after last dose; type: functional, organism-based; design: dose 20 mg/kg
[3] = tested on: Oryctolagus cuniculus; experiment: Toxicity in Staphylococcus aureus infection-induced aortic valve endocarditis rabbit assessed as fibrous content median score at 20 mg/kg, iv administered every 12 hrs for 5 days sacrificed 12 days after last dose by histopathology; type: organism-based; design: dose 20 mg/kg, route intravenous; conditions: in vivo, 288 h
[4] = tested on: Staphylococcus aureus; experiment: Antibacterial activity against Staphylococcus aureus by Etest; type: functional
[5] = tested on: Staphylococcus aureus; experiment: Antibacterial activity against Staphylococcus aureus at 0.5 mg/liter by time kill assay; type: functional
[6] = tested on: Staphylococcus aureus; experiment: Antibacterial activity against Staphylococcus aureus infection-induced aortic valve endocarditis in rabbit assessed as reduction in bacterial burdens in heart valve tissue culture at 20 mg/kg, iv administered every 12 hrs for 5 days sacrificed 12 days after last dose; type: functional, Aorta
[7] = AUC (0 to 12 hrs) in Staphylococcus aureus infection-induced aortic valve endocarditis rabbit at 20 mg/kg, iv administered every 12 hrs measured after third dose; type: ADME, organism-based, Oryctolagus cuniculus; design: time < 12 hr, dose 20 mg/kg, route intravenous; conditions: plasma
[8] = tested on: Staphylococcus aureus; experiment: Antibacterial activity against Staphylococcus aureus infection-induced aortic valve endocarditis in rabbit assessed as reduction in bacterial burdens in blood culture at 20 mg/kg, iv administered every 12 hrs for 5 days sacrificed 12 days after last dose; type: functional
[9] = tested on: Oryctolagus cuniculus; experiment: Toxicity in Staphylococcus aureus infection-induced aortic valve endocarditis rabbit assessed as collagenization median score at 20 mg/kg, iv administered every 12 hrs for 5 days sacrificed 12 days after last dose by histopathology; type: organism-based; design: dose 20 mg/kg, route intravenous; conditions: in vivo, 288 h
[10] = Drug level in Staphylococcus aureus infection-induced aortic valve endocarditis rabbit serum at 20 mg/kg, iv administered every 12 hrs measured 30 mins after seventh dose; type: ADME, organism-based, Oryctolagus cuniculus; design: dose 20 mg/kg, route intravenous; conditions: read-out: Drug uptake
[11] = AUC (0 to 12 hrs) in Staphylococcus aureus infection-induced aortic valve endocarditis rabbit at 20 mg/kg, iv administered every 12 hrs measured after seventh dose in presence of Dexamethasone; type: ADME, organism-based, Oryctolagus cuniculus; design: time < 12 hr, dose 20 mg/kg, route intravenous; conditions: plasma
[12] = tested on: Oryctolagus cuniculus; experiment: Toxicity in Staphylococcus aureus infection-induced aortic valve endocarditis rabbit assessed as inflammatory cell infiltration median score at 20 mg/kg, iv administered every 12 hrs for 5 days sacrificed 12 days after last dose by histopathology; type: organism-based; design: dose 20 mg/kg, route intravenous; conditions: in vivo, 288 h
[13] = tested on: Staphylococcus aureus; experiment: Antibacterial activity against Staphylococcus aureus infection-induced aortic valve endocarditis in rabbit assessed as cured animals in blood culture at 20 mg/kg, iv administered every 12 hrs for 5 days sacrificed 12 hrs after end of treatment; type: functional, organism-based; design: dose 20 mg/kg
[14] = tested on: Staphylococcus aureus; experiment: Antibacterial activity against Staphylococcus aureus infection-induced aortic valve endocarditis in rabbit assessed as reduction in bacterial burdens in blood culture at 20 mg/kg, iv administered every 12 hrs for 5 days sacrificed 12 hrs after end of treatment; type: functional
[15] = tested on: Staphylococcus aureus; experiment: Antibacterial activity against Staphylococcus aureus infection-induced aortic valve endocarditis in rabbit assessed as reduction in bacterial burdens in heart valve tissue culture at 20 mg/kg, iv administered every 12 hrs for 5 days sacrificed 12 hrs after end of treatment; type: functional, Aorta
[16] = Concentration in Staphylococcus aureus infection-induced aortic valve endocarditis rabbit serum at 20 mg/kg, iv administered every 12 hrs measured 12 hrs after third dose; type: ADME, organism-based, Oryctolagus cuniculus; design: dose 20 mg/kg, route intravenous; conditions: read-out: Drug uptake
[17] = tested on: Oryctolagus cuniculus; experiment: Toxicity in Staphylococcus aureus infection-induced aortic valve endocarditis rabbit assessed as tissue valve damage median score at 20 mg/kg, iv administered every 12 hrs for 5 days sacrificed 12 days after last dose by histopathology; type: organism-based; design: dose 20 mg/kg, route intravenous; conditions: in vivo
[18] = tested on: Staphylococcus aureus; experiment: Antibacterial activity against Staphylococcus aureus infection-induced aortic valve endocarditis in rabbit assessed as number of survival days at 20 mg/kg, iv administered every 12 hrs for 5 days; type: functional, Aorta
[19] = Concentration in Staphylococcus aureus infection-induced aortic valve endocarditis rabbit serum at 20 mg/kg, iv administered every 12 hrs measured 30 mins after seventh dose in presence of Dexamethasone; type: ADME, organism-based, Oryctolagus cuniculus; design: dose 20 mg/kg, route intravenous; conditions: read-out: Drug uptake
[20] = tested on: Oryctolagus cuniculus; experiment: Toxicity in Staphylococcus aureus infection-induced aortic valve endocarditis rabbit assessed as calcification median score at 20 mg/kg, iv administered every 12 hrs for 5 days sacrificed 12 days after last dose by histopathology; type: organism-based; design: dose 20 mg/kg, route intravenous; conditions: in vivo, 288 h
[21] = Concentration in Staphylococcus aureus infection-induced aortic valve endocarditis rabbit serum at 20 mg/kg, iv administered every 12 hrs measured 12hrs after seventh dose in presence of Dexamethasone; type: ADME, organism-based, Oryctolagus cuniculus; design: dose 20 mg/kg, route intravenous; conditions: read-out: Drug uptake
[22] = AUC (0 to 12 hrs) in Staphylococcus aureus infection-induced aortic valve endocarditis rabbit at 20 mg/kg, iv administered every 12 hrs measured after seventh dose; type: ADME, organism-based, Oryctolagus cuniculus; design: time < 12 hr, dose 20 mg/kg, route intravenous; conditions: plasma
[23] = Concentration in Staphylococcus aureus infection-induced aortic valve endocarditis rabbit serum at 20 mg/kg, iv administered every 12 hrs measured 30 mins after third dose; type: ADME, organism-based, Oryctolagus cuniculus; design: dose 20 mg/kg, route intravenous; conditions: read-out: Drug uptake
[24] = tested on: Staphylococcus aureus; experiment: Cardiovascular activity in Staphylococcus aureus infection-induced aortic valve endocarditis rabbit assessed as increase in fractional shortening at 20 mg/kg, iv administered every 12 hrs for 5 days […]; type: functional, organism-based; design: dose 20 mg/kg
[25] = Drug level in Staphylococcus aureus infection-induced aortic valve endocarditis rabbit serum at 20 mg/kg, iv administered every 12 hrs measured 12 hrs after seventh dose; type: ADME, organism-based, Oryctolagus cuniculus; design: dose 20 mg/kg, route intravenous; conditions: read-out: Drug uptake

For `Cc1onc(-c2ccccc2)c1C(=O)N[C@@H]1C(=O)N2[C@@H]1SC(C)(C)[C@@H]2C(=O)O` [OXACILLIN], the MBC [1] was 0.5 µg/mL (≈ 1.25 µM) and the MIC [1] was no more than 0.25 µg/mL.

With `COc1c(N2C[C@@H]3CCCN[C@@H]3C2)c(F)cc2c(=O)c(C(=O)O)cn(C3CC3)c12` [MOXIFLOXACIN] the Activity [2] was “Active”, the Activity [3] was 1.6 and the MIC [4] was 0.064 µg/mL (≈ 0.159 µM). It also gave a log10CFU/ml [5] greater than 3, a log10CFU/g [6] of 2.2 and an AUC at 12 h [7] of 16500 ng·h/mL. The log10CFU/ml [8] was 2.76 log10 CFU/ml, the Activity [9] was 2 and the concentration at 0.5 h [10] was 4390 ng/mL. It also gave an AUC at 12 h [11] of 23900 ng·h/mL, an MBC [1] of 0.125 µg/mL (≈ 0.311 µM) and an MIC [1] of 0.125 µg/mL (≈ 0.311 µM). For the same molecule, the Activity [12] was 1.2, the Activity [13] was “Active” and the log10CFU/ml [14] was 2.83. It also gave a log10CFU/g [15] of 2.1, a concentration at 12 h [16] of 230 ng/mL and an Activity [17] of 2.3. It also gave a Survival [18] of 15.3 days, a concentration at 0.5 h [19] of 3330 ng/mL and an Activity [20] of 1.6. For the same molecule, the concentration at 12 h [21] was 1000 ng/mL, the AUC at 12 h [22] was 22200 ng·h/mL and the concentration at 0.5 h [23] was 3730 ng/mL. The Activity [24] was “Active” and the concentration at 12 h [25] was 510 ng/mL.

For `CC1(C)S[C@@H]2[C@H](NC(=O)[C@H](N)c3ccc(O)cc3)C(=O)N2[C@H]1C(=O)O` [AMOXICILLIN], the MBC [1] was 4 µg/mL (≈ 10.9 µM) and the MIC [1] was 2 µg/mL (≈ 5.47 µM).
